Results reported in publication PMC3726769 (PLoS ONE, 2013).
Where two headings read alike, the source gives them in different places.

What was measured:
[1] = system: α2 I E318W; type: binding, human
[2] = system: α2 I E318W; type: binding, human; remark: listed apart in the source
Description: (§1) I domain adhesion was determined colorimetrically using a solid-phase binding assay, modified slightly from our previous studies, [16], [32] and specified below. Wells were coated using 1 μg peptide in 100 μl 0.01 M acetic acid for 1 h at 22°C on Immulon-2 HB 96-well plates (Thermo Life Sciences, Basingstoke, UK), and blocked for 1 h with 200 μl of TBS containing 50 mg/ml bovine serum albumin). Wells were washed four times with 200 μl of the adhesion buffer (TBS with 1 mg/ml bovine serum albumin) before adding 100 μl of adhesion buffer containing 10 μg/ml of recombinant GST I domains in the presence of either 2 mM MgCl2 or EDTA for 1 h at room temperature. Wells were washed five times with 200 μl of adhesion buffer containing MgCl2, before adding 100 μl of adhesion buffer containing Amersham anti-GST-HRP conjugate (RPN1236; GE Healthcare) at 1:10,000 dilution for 1 h at room temperature. After washing, colour was developed using an ImmunoPure TMB Substrate Kit (Pierce) according to the manufacturer’s instructions. Replacing Mg^2+ with EDTA abolished binding (not shown). Data for short peptide binding were compared using 2-way ANOVA to establish the overall effect of the E318W mutation, and using repeated measures 1-way ANOVA for specific comparisons (Prism 5.0 for Mac, GraphPad).

[3] = system: wild-type α2 I domain; experiment: Solid-phase binding assay of GST I domain to immobilised triple-helical peptides; design: species or system human; conditions: 1 μg peptide coated per well; 10 μg/ml GST I domain, 2 mM MgCl2; six paired experiments in triplicate (Fig. 2A)
Description: as §1

[4] = biological target: collagen-like triple-helical peptide [GPO]2GFOGER[GPO]3; experiment: SEC; analytical SEC on Superdex 200 10/300 GL at 4°C, 100 mM Tris-HCl pH 7.5, 150 mM NaCl, 2 mM MgCl2; I domain 1 mg/ml with a greater than 2-fold molar excess of peptide, 30 min at 4°C before injection
[5] = system: wild-type α2 I domain; experiment: Analytical size exclusion chromatography of I domain-collagen peptide complexes; type: binding, human
Description: After incubation for 30 min at 4°C, the solutions were injected onto a Superdex 200 10/300 GL column and run at 4°C at a flow rate of 0.5 ml/min in SEC buffer.

[6] = system: α2 I E318W; experiment: as above; type: binding, human
Description: The lyophilised triple-helical peptides (GFOGER, GMOGER, GAOGER) were dissolved in 500 μl of 1 mg/ml stock solutions of either wild-type or E318W α2 I domains. The amount of peptide was chosen so as to yield a greater than 2-fold molar excess of peptide. After incubation for 30 min at 4°C, the solutions were injected onto a Superdex 200 10/300 GL column and run at 4°C at a flow rate of 0.5 ml/min in SEC buffer.

[7] = biological target: T1, collagen-like triple-helical peptide [GPO]2GMOGER[GPO]3 (O denotes hydroxyproline; C-terminal amide); experiment: SEC; analytical SEC on Superdex 200 10/300 GL at 4°C, 100 mM Tris-HCl pH 7.5, 150 mM NaCl, 2 mM MgCl2; I domain 1 mg/ml with a greater than 2-fold molar excess of peptide, 30 min at 4°C before injection; conditions: both partners purified
T1 chain: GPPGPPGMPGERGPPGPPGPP

[8] = 1 μg peptide coated per well, 10 μg/ml GST I domain, 2 mM MgCl2, six paired experiments in triplicate (Fig. 2A)
[9] = solid-phase binding, shorter triple-helical peptides, A450, six paired experiments (Fig. 2A), ANOVA p<0.001
[10] = SEC, Superdex 200, 4°C, peptide in >2-fold molar excess (Fig. 3)
[11] = SEC, Superdex 200, 4°C, peptide in >2-fold molar excess, 1 mg/ml I domain, 30 min incubation at 4°C, 100 mM Tris-HCl pH 7.5, 150 mM NaCl, 2 mM MgCl2

## GAOGER
[1]
  Change in affinity of E318W compared with wild-type, increasing dose of I domain: substantially greater increase in affinity

## GASGER
[2]
  Change in binding of α2 I E318W compared with wild-type α2 I domain: several-fold increases

## GFOGEK
[2]
  Binding of α2 I E318W to shorter triple-helical Gxx'GEx'' peptides (A450): bound well
[3]
  Binding of wild-type α2 I domain to shorter triple-helical Gxx'GEx'' peptides (A450): bound well

## GFOGER [positive control]
[2]; [8]
  Binding of α2 I E318W to shorter triple-helical Gxx'GEx'' peptides (A450): bound well
[3]
  Binding of wild-type α2 I domain to shorter triple-helical Gxx'GEx'' peptides (A450): bound well
[1]; increasing concentrations of I domain on peptide coatings, single-site binding curves, 3 replicates in a single experiment (Fig. 2B)
  Change in affinity of E318W compared with wild-type, increasing dose of I domain: modest increase in affinity

## GFPGER
[2]
  Binding of α2 I E318W to shorter triple-helical Gxx'GEx'' peptides (A450): bound well
[2]; [9]
  Change in binding of α2 I E318W compared with wild-type α2 I domain: equally well
[3]
  Binding of wild-type α2 I domain to shorter triple-helical Gxx'GEx'' peptides (A450): bound well

## GLKGEN
[2]
  Change in binding of α2 I E318W compared with wild-type α2 I domain: several-fold increases

## GLOGEA
[2]
  Binding of α2 I E318W to shorter triple-helical Gxx'GEx'' peptides (A450): bound well
[3]
  Binding of wild-type α2 I domain to shorter triple-helical Gxx'GEx'' peptides (A450): bound well

## GLOGEN
[2]; [8]
  Binding of α2 I E318W to shorter triple-helical Gxx'GEx'' peptides (A450): bound well
[3]
  Binding of wild-type α2 I domain to shorter triple-helical Gxx'GEx'' peptides (A450): bound well

## GLOGER
[2]; [8]
  Binding of α2 I E318W to shorter triple-helical Gxx'GEx'' peptides (A450): bound well
[3]
  Binding of wild-type α2 I domain to shorter triple-helical Gxx'GEx'' peptides (A450): bound well

## GMOGER
[2]
  Change in binding of α2 I E318W compared with wild-type α2 I domain: doubling in amplitude
[2]; [9]
  Change in binding of α2 I E318W compared with wild-type α2 I domain: substantial increase
[1]
  Change in affinity of E318W compared with wild-type, increasing dose of I domain: substantially greater increase in affinity

## GQRGER
[2]
  Change in binding of α2 I E318W compared with wild-type α2 I domain: several-fold increases

## GROGER
[2]
  Binding of α2 I E318W to shorter triple-helical Gxx'GEx'' peptides (A450): bound well
[3]
  Binding of wild-type α2 I domain to shorter triple-helical Gxx'GEx'' peptides (A450): bound well

## GVOGEA [shorter triple-helical peptide with the α1β1-specific motif GVOGEA]
[2]; [8]
  Binding of α2 I E318W to shorter triple-helical Gxx'GEx'' peptides (A450): not recognised
[3]
  Binding of wild-type α2 I domain to shorter triple-helical Gxx'GEx'' peptides (A450): not recognised

## His-tagged integrin α2 I domain E318W (for SEC and crystallisation) (from UniProt P17301 171-368) (domain or fragment)
[4]
  stoichiometry N (I domains per triple-helical peptide): 2

## [GPO]2GFOGER[GPO]3 [GFOGER peptide, short homotrimeric collagen-like peptide [GPO]2GFOGER[GPO]3 used for SEC and crystallisation]
[5]; [10]
  Reduction in elution volume of wild-type α2 I domain on addition of peptide: 0.6 mL
[5]; [11]
  Complex formation with wild-type α2 I in solution (I domain:peptide stoichiometry): formed a 1:1 complex
[5]; Superdex 200, 4°C (Fig. 3)
  Apparent mass of the wild-type α2 I-peptide complex derived from the calibration of the SEC column: 31 kDa
[6]; [10]
  Reduction in elution volume of α2 I E318W on addition of peptide: 1.4 mL
[6]; [11]
  Complex formation with α2 I E318W in solution (I domain:peptide stoichiometry): appeared to form a 2:1 complex
[6]; Superdex 200, 4°C (Fig. 3), calculated mass 56.1 kDa
  Apparent mass of the α2 I E318W-peptide complex from calibration of the SEC column: 44 kDa

## wild-type integrin α2 I domain used in analytical SEC (domain or fragment)
[4]
  stoichiometry N (I domain per triple-helical peptide): 1

B1: His-tagged integrin α2 I domain E318W (for SEC and crystallisation) (domain or fragment, human)
chain: SLIDVVVVCDESNSIYPWDAVKNFLEKFVQGLDIGPTKTQVGLIQYANNPRVVFNLNTYKTKEEMIVATSQTSQYGGDLTNTFGAIQYARKYAYSAASGGRRSATKVMVVVTDGESHDGSMLKAVIDQCNHDNILRFGIAVLGYLNRNALDTKNLIKEIKAIASIPTERYFFNVSDWAALLEKAGTLGEQIFSIEGTV
notes: also called α2 I E318W; E318W I domain; source: E. coli Origami, purified (HisTrap FF, SEC on Superdex 75)
[7]
  stoichiometry N: 1 I domain per triple-helical peptide
